Values of other authors as cited in patent US20080102144A1, “FAT BETA-OXIDATION ENHANCING AND CARBOHYDRATE ABSORPTION INHIBITION SUPPLEMENT” (priority 2006, published 2008).
Where two headings read alike, the source gives them in different places.

Assays:
[1] = test system: hepatic glucose-6-phosphate (G-6-P); conditions: rate-limiting step in gluconeogenesis
[2] = test system: carnitine palmitoyltransferase; conditions: 0.5% and 1.0% supplemented diets after 6 days
[3] = mice
[4] = human studies, as opposed to triacylglycerol, no increase in energy expenditure
[5] = 16 weeks, versus triacylglycerol

Which “inhibition of hepatic glucose-6-phosphate (G-6-P)” value [1] does the source give for O=C(/C=C/c1ccc(O)c(O)c1)O[C@@H]1C[C@](O)(C(=O)O)C[C@@H](O)[C@H]1O [chlorogenic acid] here?
The value was “selectively inhibit”.

And the “cell cycle phase of proliferation arrest” value (3T3-preadipocyte cells; 3T3-preadipocyte cells)?
The value was “G1 phase”.

And the “proliferation of 3T3-preadipocyte cells” value (3T3-preadipocyte cells; addition to 3T3-preadipocyte tissue cultures)?
Its value is “inhibited the proliferation in both and a time- and dose-dependant manner”.

What about the “carnitine palmitoyltransferase activity in the liver” value [2] of the same molecule?
Its value is “did not enhance”.

Which “total serum triglyceride levels” value [3] does the source give for Cn1c(=O)c2c(ncn2C)n(C)c1=O [caffeine] here?
Its value is “decreased”.

Which “β-oxidation of fatty acids” value [4] does the source give for diacylglycerol here?
Its value is “increase”.

What about the hepatic fat oxidation (after a single dose, compared to triacylglycerol) of the same molecule?
Its hepatic fat oxidation is “significant increase”.

And the “β-oxidation of fatty acids” value (animal studies, compared against triacylglycerol)?
Its value is “increase”.

And the “glucose-6-phophate dehydrogenase, malic enzyme, fatty acid synthase and fatty acid synthesis” value (rats fed diacylglycerol)?
Its value is “lower”.

What about the “mitochondrial and peroxisome oxidation of palmtoyl-CoA in liver homogenates” value (rats fed diacylglycerol) of the same molecule?
The value was “increased”.

What about the body mass index [5] of the same molecule?
The body mass index was “significant decrease”.

What about the body weight [5] of the same molecule?
The body weight was “significant decrease”.

What about the “total fat area as assessed by CT scan” value [5] of the same molecule?
The value was “significantly reduced”.

And the waist circumference [5]?
The waist circumference was “significant decrease”.
